Laboratory results reported in US12264173B2 (GILEAD SCIENCES, INC., priority 2020, dated 2025).
Where two headings read alike, the source gives them in different places.

Legend:
Format in all cases: cell-based
DENV2 replicon = test: DENV-2 Huh-7 Rep EC50 (replicon luminescence)
Experimental: In 384 well plates (Greiner, Cat #781091), compounds were acoustically transferred at 200 nl per well in a 8 compound (4 replicates) or 40 compound dose response format (3 replicates). For all plates tested, Balapiravir, GS-5734 and NITD008 were included as positive inhibition controls alongside 0% inhibition, DMSO-only negative control wells. Following compound addition, Huh-7 cells containing the DENV2 replicon construct were harvested following standard cell culture procedures and were adjusted to a concentration of 1.25E5 cells/mL in cell culture media composed of cDMEM without genticin. 40 μL of the cell stock was then added to each well for a final cell density of 5,000 cells/well. Cell and compound mixtures were incubated at 37° C./5% CO2 for 48 hours. Prior to harvesting cells, EnduRen Live Cell Substrate (Promega, Cat #E6481) was prepared by suspending 3.4 mg into 100 uL of DMSO to generate a 60 mM stock solution. The stock solution was then diluted 1:200 in pre-warmed cDMEM and 10 uL of this diluted solution was added to each well of the 384 well plates. Plates were then centrifuged at 500 rpm briefly and were placed on a plate shaker for 2 min. Following mixing, plates were incubated at […] for 1.5 hours prior to measuring luminescence on an Envision luminometer.

RSV A2 = test: RSV NHBE EC50 (RSV A2 antiviral assay in NHBE cells); conditions: human respiratory syncytial virus, NHBE, 96 h, Table 3; NHBE cells, RSV A2, 4 days; read-out: RSV NHBE EC50
In short: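 Luminescent ATP-based viability was recorded in RSV A2-infected normal human bronchial epithelial cells exposed to serially diluted compound (3-fold steps, 0.05% DMSO). Infection used 1×10^4.5 TCID/mL, with a 4-day incubation at 37° C.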

RSV strain A2 = test: microbe, parasite or virus in culture; conditions: Table 3, HEp-2 cells, RSV A2, 4 days, read-out: RSV HEp-2 EC50
In short: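 Cytopathic-effect protection assay: HEp-2 cells (50,000/mL) infected with pre-titered RSV A2 onto 3-fold serial compound dilutions, incubated 4 days at 37° C. Cell viability read by CellTiter-Glo luminescence; percent inhibition derived against 0% and 100% virus-inhibition controls.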

HRV16 = HRV16 HeLa EC50 (cytopathic effect in H1-HeLa cells)
Experimental: H1-HeLa cells, cultured in complete DMEM medium containing 10% heat-inactivated FBS and 1% Penicillin/Streptomycin, were seeded in 96 well plates at 3000 cells/well one day prior to compound dosing and infection. The antiviral activity of each compound was measured in triplicate. Compounds were added directly to the cell cultures in serial 3-fold dilutions using the HP300 digital dispenser (Hewlett Packard, Palo Alto, CA) immediately prior to infection. The plates were transferred to BSL-2 containment and the appropriate dilution of virus stock, previously determined by titration and prepared in cell culture media, was added to test plates containing cells and serially diluted compounds. Each plate included 6 wells of infected untreated cells and 6 wells of uninfected cells that served as 0% and 100% virus inhibition control, respectively. Following the infection, test plates were incubated for 96 h in a tissue culture incubator set to 33° C./5% CO2. Following incubation, the H1-HeLa cells were removed from incubation and allowed to equilibrate to 25° C. Cell viability was determined by removing 100 μL of culture medium and adding 100 μL of Cell-Titer Glo viability reagent. The mixtures were incubated on a shaker for 10 minutes at 25° C., and the luminescence signal was quantified on an Envision luminescence plate reader.

[1] = Dengue virus, DENV2, Huh-7, 48 h, read-out: DENV-2 REP Huh7 EC50
[2] = human respiratory syncytial virus, HEp-2, 96 h
[3] = 96 h, Table 3; H1-HeLa cells, 96 h; read-out: HRV16 HeLa EC50
[4] = Dengue virus, DENV2, Huh-7, 48 h, read-out: DENV-2 REP Huh7 EC50, Table 3, Huh-7 DENV2 replicon cells, 48 hours

| SMILES | EC50 (DENV2 replicon; [1]) [nM] | EC50 (RSV A2) [nM] | EC50 (RSV strain A2; [2]) [nM] | EC50 (HRV16; [3]) [nM] | EC50 (DENV2 replicon; [4]) [nM] | EC50 (HRV16; 96 h, read-out: HRV16 HeLa EC50, Table 3; H1-HeLa cells, 96 h) [nM] | EC50 (DENV2 replicon; Table 3, Huh-7 DENV2 replicon cells, 48 hours, read-out: DENV-2 REP Huh7 EC50) [nM] | EC50 (RSV strain A2) [nM] | EC50 (HRV16; Table 3; H1-HeLa cells, 96 h; read-out: HRV16 HeLa EC50) [nM] |
| --- | --- | --- | --- | --- | --- | --- | --- | --- | --- |
| CCC(=O)O[C@H]1[C@H](c2ccc3c(N)ncnn23)O[C@](C#N)(COP(=O)(N[C@@H](C)C(=O)OC2COC2)Oc2ccccc2)[C@H]1OC(=O)CC (mixture of isomers) [Example 174, (2R,3S,4S,5S)-5-(4-aminopyrrolo[2,1-f][1,2,4]triazin-7-yl)-2-cyano-2-((((((S)-1-(oxetan-3-yloxy)-1-oxopropan-2-yl)amino)(phenoxy)phosphoryl)oxy)methyl) tetrahydrofuran-3,4-diyl dipropionate] | 8310 | 20 | 100 | 97 | – | – | – | – | – |
| CCCOC(=O)[C@H](C)NP(=O)(OC[C@@]1(C#N)O[C@@H](c2ccc3c(N)ncnn23)[C@H](OC(=O)CC)[C@@H]1OC(=O)CC)Oc1ccccc1 (mixture of isomers) [Example 187] | 5930 | 17 | 24 | 88 | – | – | – | – | – |
| CCC(CC)COC(=O)[C@H](C)NP(=O)(N[C@@H](C)C(=O)OC1CCCCC1)OC[C@@]1(C#N)O[C@@H](c2ccc3c(N)ncnn23)[C@H](OC(C)=O)[C@@H]1OC(C)=O (stereo partly drawn) [Example 113, (2R,3S,4S,5S)-5-(4-Aminopyrrolo[2,1-f][1,2,4]triazin-7-yl)-2-cyano-2-((((((S)-1-(cyclohexyloxy)-1-oxopropan-2-yl)amino)(((S)-1-(2-ethylbutoxy)-1-oxopropan-2-yl)amino)phosphoryl)oxy)methyl)tetrahydrofuran-3,4-diyl diacetate] | – | – | 1940 | – | 31900 | 4680 | – | – | – |
| CC(=O)O[C@H]1[C@H](c2ccc3c(N)ncnn23)O[C@](C#N)(CO[P@](=O)(N[C@@H](C)C(=O)OCC2CCN(CC(F)(F)F)CC2)Oc2ccccc2)[C@H]1OC(C)=O [Example 120] | – | – | – | – | – | – | 35200 | 163 | 1140 |
| CC(C)OC(=O)[C@H](C)NP(=O)(OCCS(C)(=O)=O)OC[C@@]1(C#N)O[C@@H](c2ccc3c(N)ncnn23)[C@H](OC(=O)C(C)C)[C@@H]1OC(=O)C(C)C (stereo partly drawn) [Example 210, (2R,3S,4S,5S)-5-(4-aminopyrrolo[2,1-f][1,2,4]triazin-7-yl)-2-cyano-2-((((((S)-1-isopropoxy-1-oxopropan-2-yl)amino)(2-(methylsulfonyl)ethoxy)phosphoryl)oxy)methyl)tetrahydrofuran-3,4-diyl bis(2-methylpropanoate)] | – | 3420 | 36300 | – | > 35400 | – | – | – | – |
| CC(C)C(=O)O[C@H]1[C@H](c2ccc3c(N)ncnn23)O[C@](C#N)(COP(=O)(N[C@@H](C)C(=O)OC2CCCC2)Oc2ccccc2)[C@H]1OC(=O)C(C)C (stereo partly drawn) [Example 254, (2R,3S,4S,5S)-5-(4-aminopyrrolo[2,1-f][1,2,4]triazin-7-yl)-2-cyano-2-((((((S)-1-(cyclopentyloxy)-1-oxopropan-2-yl)amino)(phenoxy)phosphoryl)oxy)methyl) tetrahydrofuran-3,4-diyl bis(2-methylpropanoate)] | 29400 | 24 | 36 | – | – | – | – | – | – |
| CC(C)C(=O)O[C@H]1[C@H](c2ccc3c(N)ncnn23)O[C@](C#N)(COP(=O)(N[C@@H](C)C(=O)OC2CC2)Oc2ccccc2)[C@H]1OC(=O)C(C)C (stereo partly drawn) [Example 255, (2R,3S,4S,5S)-5-(4-aminopyrrolo[2,1-f][1,2,4]triazin-7-yl)-2-cyano-2-((((((S)-1-cyclopropoxy-1-oxopropan-2-yl)amino)(phenoxy)phosphoryl)oxy)methyl) tetrahydrofuran-3,4-diyl bis(2-methylpropanoate)] | 2910 | 18 | 38 | – | – | – | – | – | – |
| COC(=O)[C@H](C)N[P@](=O)(OC[C@@]1(C#N)O[C@@H](c2ccc3c(/N=C/N(C)C)ncnn23)[C@H](OC(=O)C(C)C)[C@@H]1OC(=O)C(C)C)Oc1ccccc1 [Example 260, (2R,3S,4S,5S)-2-Cyano-5-(4-(((E)-(dimethylamino)methylene)amino)pyrrolo[2,1-f][1,2,4]triazin-7-yl)-2-((((S)-(((S)-1-methoxy-1-oxopropan-2-yl)amino)(phenoxy)phosphoryl)oxy)methyl) tetrahydrofuran-3,4-diyl bis(2-methylpropanoate)] | 2800 | 12 | 41 | – | – | – | – | – | – |
